From ChEMBL document CHEMBL3526000 (Drug Metab Dispos, 2012)

Columns and labels:
[1] = target: T1, UDP-glucuronosyltransferase 2B15 (Homo sapiens, UniProt P54855); assay: Drug metabolism assessed as recombinant human UGT2B15 assessed as O-glucuronidation at 100 uM incubated for 60 mins by LC-MS/MS analysis; type: ADME; conditions: recombinant enzyme, 1 h
T1 sequence (P54855 whole entry): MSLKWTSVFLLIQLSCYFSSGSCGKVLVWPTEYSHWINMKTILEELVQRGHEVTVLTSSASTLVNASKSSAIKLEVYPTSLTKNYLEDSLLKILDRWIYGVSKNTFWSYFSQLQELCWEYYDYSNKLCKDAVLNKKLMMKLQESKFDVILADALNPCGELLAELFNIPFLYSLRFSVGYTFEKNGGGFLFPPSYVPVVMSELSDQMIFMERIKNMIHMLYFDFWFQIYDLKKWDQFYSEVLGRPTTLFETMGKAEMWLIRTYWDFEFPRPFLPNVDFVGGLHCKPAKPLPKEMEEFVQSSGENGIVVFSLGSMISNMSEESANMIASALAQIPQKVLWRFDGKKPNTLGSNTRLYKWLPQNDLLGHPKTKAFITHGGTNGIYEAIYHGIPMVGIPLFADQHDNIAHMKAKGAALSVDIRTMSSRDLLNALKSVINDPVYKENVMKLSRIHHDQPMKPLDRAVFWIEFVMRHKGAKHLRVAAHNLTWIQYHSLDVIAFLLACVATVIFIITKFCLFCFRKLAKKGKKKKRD

[2] = target: T2, UDP-glucuronosyltransferase 2B4 (Homo sapiens, UniProt P06133); assay: Drug metabolism assessed as recombinant human UGT2B4 assessed as O-glucuronidation at 100 uM incubated for 60 mins by LC-MS/MS analysis; type: ADME; conditions: recombinant enzyme, 1 h
T2 sequence (P06133 whole entry): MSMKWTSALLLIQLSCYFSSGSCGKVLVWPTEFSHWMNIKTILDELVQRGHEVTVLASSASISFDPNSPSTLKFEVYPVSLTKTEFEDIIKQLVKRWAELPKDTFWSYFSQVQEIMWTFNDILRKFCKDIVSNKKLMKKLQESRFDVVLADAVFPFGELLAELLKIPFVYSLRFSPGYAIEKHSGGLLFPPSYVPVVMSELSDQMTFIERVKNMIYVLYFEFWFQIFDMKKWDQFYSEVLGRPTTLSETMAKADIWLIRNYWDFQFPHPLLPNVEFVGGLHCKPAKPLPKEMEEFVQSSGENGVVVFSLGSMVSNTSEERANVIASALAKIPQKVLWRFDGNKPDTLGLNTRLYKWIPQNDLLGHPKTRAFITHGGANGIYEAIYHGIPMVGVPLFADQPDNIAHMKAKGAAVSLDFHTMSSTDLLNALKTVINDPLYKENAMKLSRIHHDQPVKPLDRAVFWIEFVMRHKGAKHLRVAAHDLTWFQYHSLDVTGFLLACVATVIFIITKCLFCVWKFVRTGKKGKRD

[3] = target: T3, UGT2B7 (Homo sapiens, UniProt P16662); assay: Drug metabolism assessed as recombinant human UGT2B7 assessed as O-glucuronidation at 10 to 400 uM incubated for 60 mins by LC-MS/MS analysis
T3 sequence (P16662 whole entry): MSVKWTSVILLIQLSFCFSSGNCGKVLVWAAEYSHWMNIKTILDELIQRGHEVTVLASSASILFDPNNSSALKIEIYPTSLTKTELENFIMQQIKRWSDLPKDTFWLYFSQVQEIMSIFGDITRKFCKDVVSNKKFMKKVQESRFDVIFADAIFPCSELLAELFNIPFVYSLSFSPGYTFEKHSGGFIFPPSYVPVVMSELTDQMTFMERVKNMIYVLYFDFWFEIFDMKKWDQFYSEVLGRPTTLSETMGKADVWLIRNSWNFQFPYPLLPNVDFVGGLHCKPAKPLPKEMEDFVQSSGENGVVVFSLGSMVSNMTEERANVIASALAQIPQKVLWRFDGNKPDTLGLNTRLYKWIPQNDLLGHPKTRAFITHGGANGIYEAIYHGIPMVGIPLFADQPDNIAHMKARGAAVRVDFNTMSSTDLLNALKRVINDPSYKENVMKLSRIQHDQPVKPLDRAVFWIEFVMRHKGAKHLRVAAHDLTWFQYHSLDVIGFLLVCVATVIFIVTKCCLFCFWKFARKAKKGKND

[4] = target: T4, UDP-glucuronosyltransferase 2B17 (Homo sapiens, UniProt O75795); assay: Drug metabolism assessed as recombinant human UGT2B17 assessed as N-glucuronidation at 100 uM incubated for 60 mins by LC-MS/MS analysis; type: ADME; conditions: recombinant enzyme, 1 h
T4 sequence (O75795 whole entry): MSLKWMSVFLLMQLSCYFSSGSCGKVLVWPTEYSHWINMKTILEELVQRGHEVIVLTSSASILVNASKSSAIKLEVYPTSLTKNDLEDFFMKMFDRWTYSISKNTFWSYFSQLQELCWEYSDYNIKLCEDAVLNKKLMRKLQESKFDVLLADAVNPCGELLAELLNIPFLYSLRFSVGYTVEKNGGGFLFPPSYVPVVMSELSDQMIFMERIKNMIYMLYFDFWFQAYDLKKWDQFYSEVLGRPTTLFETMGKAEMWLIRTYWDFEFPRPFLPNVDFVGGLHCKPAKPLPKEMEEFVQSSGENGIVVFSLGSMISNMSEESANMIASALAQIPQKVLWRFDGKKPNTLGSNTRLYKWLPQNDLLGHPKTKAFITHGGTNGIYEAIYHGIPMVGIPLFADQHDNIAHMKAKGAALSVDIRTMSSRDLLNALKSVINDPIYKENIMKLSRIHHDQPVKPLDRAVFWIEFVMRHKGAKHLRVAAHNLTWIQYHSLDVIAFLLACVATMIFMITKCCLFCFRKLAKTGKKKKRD

[5] = target: T5, UDP-glucuronosyltransferase 2B7 (Homo sapiens, UniProt P16662); assay: Drug metabolism assessed as recombinant human UGT2B7 assessed as O-glucuronidation measured as inhibition constant at 10 to 400 uM incubated for 60 mins by LC-MS/MS analysis
T5 sequence (P16662 whole entry): T3 sequence (P16662 whole entry)

[6] = Drug excretion in human urine; type: ADME; conditions: read-out: Drug excretion
[7] = target: T2, UDP-glucuronosyltransferase 2B4; assay: Drug metabolism assessed as recombinant human UGT2B4 assessed as N-glucuronidation at 100 uM incubated for 60 mins by LC-MS/MS analysis; type: ADME; conditions: recombinant enzyme, 1 h

- Drug metabolism [1]: metabolite_not_detected
- Drug metabolism [2]: metabolite_not_detected
- Km at 1 h, 400 µM [3]: 45 µM
- Drug metabolism [4]: metabolite_not_detected
- Ki [5]: 590 µM
- dose excreted [6]: 1%
- Drug metabolism [7]: metabolite_not_detected
Compound: O=C(CCCN1CCC(O)(c2ccc(Cl)cc2)CC1)c1ccc(F)cc1 [HALOPERIDOL]
